Measurements: patent US11679100B2, “Methods of enhancing immunity” (The Regents of the University of California, priority 2018, dated 2023)

Columns and labels:
Stat3 = target: T1, Stat3 (Mus musculus, UniProt P42227); assay: mRNA expression in macrophages incubated with Stat3 inhibitor; format: cell-based, murine
T1 construct: endogenous in cells; host or cells: murine bone marrow derived macrophages (WT and Itgam-/-)
Experimental: Macrophage Polarization—Bone marrow derived macrophages were polarized with either IFNγ (20 ng/ml, Peprotech) plus LPS (100 ng/ml, Sigma) or LPS alone for 24 h or IL-4 (20 ng/ml, Peprotech) for 24-48 h. In some cases, macrophages were incubated with inhibitors of Stat3 ([…]) or cMyc (10058-F4, Selleck). In other experiments, BMM were treated with LLC tumor conditioned media (TCM) or 100 ng/ml TGF-β (PeproTech) for 6 h to analyze changes in protein and gene expression levels. TCM was obtained by culturing LLC in serum free media for 18 h followed by collecting the supernatant and sterile filtering prior to use. In some experiments TGF-β signaling was inhibited using SB5253324 added 30 min prior and during the 6 h stimulation. Total RNA was harvested from macrophages using the RNeasy Mini Kit (Qiagen) according to the manufacturer's instructions. Secreted protein was measured in culture supernatants by ELISA assays.
Analysis of Gene Expression—Total RNA was isolated from cells using RNeasy Mini Kit (Qiagen). cDNA was prepared using 1 μg RNA with the qScript cDNA Synthesis Kit (Quanta Biosciences) or the SuperScript III First-Strand Synthesis Kit (Invitrogen). […]

LLC tumors [1] = assay: Gemcitabine treatment of WT and Itgam-/- mice with LLC tumors; format: in vivo
Experimental: Tumor Studies—Subcutaneous tumor studies: 5×10^5 LLC or B16 cells were injected subcutaneously into syngeneic (C57BL/6) 6- to 8-week old WT or Itgam^−/− mice (n=18). Tumors were excised at 7, 14 or 21 days, cryopreserved in OCT, lysed for RNA purification or collagenase-digested for flow cytometric analysis of CD11b+, F4/80+ and Gr1+ expression. Tumor volumes were calculated using the equation (l^2×w)/2. CL66-luc cells (0.5×10^6 cells) were suspended in 50 μL of basement membrane extract Matrigel (BD Pharmingen) in PBS (1:1) and inoculated orthotopically in the fourth mammary fat pad of female Balb/cJ mice. Tumor dimensions were measured every 2 days, and tumor volume was calculated using the equation: V (mm^3)=[…], where length is the longest diameter of the tumor and width is the shorter diameter.

LLC tumors [2] = assay: Imatinib treatment of WT and Itgam-/- mice bearing LLC tumors; format: in vivo

T1 sequence (P42227 whole entry): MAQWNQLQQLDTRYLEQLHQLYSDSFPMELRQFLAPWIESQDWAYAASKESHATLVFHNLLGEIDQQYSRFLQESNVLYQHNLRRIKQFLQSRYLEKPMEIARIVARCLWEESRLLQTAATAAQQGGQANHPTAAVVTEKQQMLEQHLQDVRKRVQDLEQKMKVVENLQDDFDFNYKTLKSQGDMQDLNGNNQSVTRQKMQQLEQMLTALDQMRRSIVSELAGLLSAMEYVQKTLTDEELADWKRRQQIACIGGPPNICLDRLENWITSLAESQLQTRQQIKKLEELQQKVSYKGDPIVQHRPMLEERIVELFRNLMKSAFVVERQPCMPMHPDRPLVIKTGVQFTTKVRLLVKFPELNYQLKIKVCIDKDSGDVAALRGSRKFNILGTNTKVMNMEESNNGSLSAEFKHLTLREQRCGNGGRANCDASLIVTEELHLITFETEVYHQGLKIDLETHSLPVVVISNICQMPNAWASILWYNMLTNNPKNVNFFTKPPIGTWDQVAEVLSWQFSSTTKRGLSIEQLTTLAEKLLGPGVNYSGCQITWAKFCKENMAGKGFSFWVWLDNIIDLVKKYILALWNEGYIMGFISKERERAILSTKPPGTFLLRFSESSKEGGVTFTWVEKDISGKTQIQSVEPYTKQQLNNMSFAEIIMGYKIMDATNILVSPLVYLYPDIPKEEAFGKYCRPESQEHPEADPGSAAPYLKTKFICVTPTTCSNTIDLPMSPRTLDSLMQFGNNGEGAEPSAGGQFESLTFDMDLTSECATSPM

Compound: C1=Cc2nc1cc1ccc([nH]1)c(-c1ccccc1)c1nc(cc3ccc([nH]3)c2-c2ccccc2)C=C1 [5,15-DPP]
- Il6 expression in Itgam-/- macrophages (Stat3): did not affect the high levels of Il6 expression
- immune suppressive factor expression in Itgam-/- macrophages (Stat3): reduced to WT macrophage levels

Compound: Nc1ccn([C@@H]2O[C@H](CO)[C@@H](O)C2(F)F)c(=O)n1 [gemcitabine]
- tumor growth in Itgam-/- mice versus WT mice (LLC tumors [1]): suppressed tumor growth more profoundly than gemcitabine treatment of WT mice

Compound: Cc1ccc(NC(=O)c2ccc(CN3CCN(C)CC3)cc2)cc1Nc1nccc(-c2cccnc2)n1 [Imatinib, imatinib]
- tumor growth and vascular normalization in Itgam-/- mice (LLC tumors [2]): suppressed the enhanced tumor growth and increased vascular normalization observed in Itgam−/− mice
